Values joined by “and” are separate entries in the source; they are usually repeats but may differ in a detail not shown here. Identical values can stand only once.
Tests used:
MMP-14 = target: T1, MMP-14 (Homo sapiens, UniProt P50281); test: In vitro MMP inhibition, Ki determination (fluorogenic substrate II); type: biochemical; settings: value outside parentheses; read-out: MMP-14 Ki
T1 construct: The catalytic domain enzyme was expressed in E. coli inclusion bodies, solubilized in urea; made in house
Summary of the method: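 E. coli-expressed, refolded MMP-14 catalytic domain, activated with APMA or trypsin, in 100 mM Tris-HCl pH 7.5, 100 mM NaCl, 10 mM CaCl2, 0.05% Brij-type detergent. Apparent Ki by Morrison-equation regression of velocity vs inhibitor and enzyme concentration.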

MMP-9 = target: T2, MMP-9 (Homo sapiens, UniProt P14780); test: as above; type: biochemical; settings: value outside parentheses
T2 construct: made in house; host or cells: MMP-9-transfected HT1080 cells (spent media)
T2 sequence (P14780 107-707 limits assumed): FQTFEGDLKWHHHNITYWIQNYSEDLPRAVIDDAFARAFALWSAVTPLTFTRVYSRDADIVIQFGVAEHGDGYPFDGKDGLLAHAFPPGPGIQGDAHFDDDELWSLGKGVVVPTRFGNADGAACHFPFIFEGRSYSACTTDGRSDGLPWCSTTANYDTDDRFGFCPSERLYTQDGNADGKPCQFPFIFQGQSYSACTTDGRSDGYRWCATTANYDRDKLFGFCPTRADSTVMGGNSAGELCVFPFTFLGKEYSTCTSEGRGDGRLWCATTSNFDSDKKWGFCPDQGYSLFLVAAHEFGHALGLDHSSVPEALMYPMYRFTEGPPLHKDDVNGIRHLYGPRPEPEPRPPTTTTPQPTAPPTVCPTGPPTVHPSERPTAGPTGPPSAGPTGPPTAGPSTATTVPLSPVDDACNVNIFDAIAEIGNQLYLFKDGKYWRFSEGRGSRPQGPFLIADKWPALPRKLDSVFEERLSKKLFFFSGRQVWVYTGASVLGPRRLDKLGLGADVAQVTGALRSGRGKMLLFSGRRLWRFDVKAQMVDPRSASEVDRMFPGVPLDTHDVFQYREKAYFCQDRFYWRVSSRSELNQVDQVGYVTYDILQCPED
Summary of the method: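 HT1080-derived MMP-9, activated with APMA, trypsin or MMP-3, incubated 1 hr at room temperature with inhibitor and 4 μM fluorogenic substrate II (at or below Km) in pH 7.5 Tris/NaCl/CaCl2 buffer; ex 330/em 420 nm. Ki from Morrison-equation regression, without substrate correction.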

Ki (MMP-14)	Ki (MMP-9)	SMILES
3.44 µM	0.638 µM	O=C(NO)C1(S(=O)(=O)N2CCN(c3cccc(OCCCC(F)(F)F)c3)CC2)CCOCC1 [Example 355]
3.42 µM	0.184 µM	CCCCCc1cccc(N2CCN(S(=O)(=O)C3(C(=O)NO)CCOCC3)CC2)c1 [Example 356]
2.29 µM	0.000718 µM	O=C(NO)C1(S(=O)(=O)N2CCC(c3ccc(OCC(F)(F)F)cc3)CC2)CCOCC1 [Example 357]
2.95 µM	0.00086 µM	O=C(NO)C1(S(=O)(=O)N2CCN(c3ccc(CCCC(F)(F)F)cn3)CC2)CCOCC1 [Example 358]
0.0429 µM	0.00121 µM	O=C(NO)C1(S(=O)(=O)N2CCN(c3ncc(-c4ccc(F)cc4F)s3)CC2)CCOCC1 [Example 359]
0.216 µM	0.00628 µM	O=C(NO)C1(S(=O)(=O)N2CCN(c3ncc(-c4ccc(-c5ccccc5)cc4)s3)CC2)CCOCC1 [Example 360]
0.497 µM and 0.46 µM	0.0361 µM and 0.0329 µM	O=C(NO)C1(S(=O)(=O)N2CCN(c3ncc(/C=C/c4ccccc4)s3)CC2)CCOCC1 [Example 361]
0.15 µM	0.00137 µM	O=C(NO)C1(S(=O)(=O)N2CCN(c3ncc(-c4ccc5c(c4)OCO5)s3)CC2)CCOCC1 [Example 362]
0.0278 µM	0.00174 µM	O=C(NO)C1(S(=O)(=O)N2CCN(c3ncc(-c4ccc([N+](=O)[O-])cc4)s3)CC2)CCOCC1 [Example 363]
0.0697 µM	0.000802 µM	O=C(NO)C1(S(=O)(=O)N2CCN(c3ncc(-c4ccc(OC(F)(F)F)cc4)s3)CC2)CCOCC1 [Example 364]
> 10 µM	1.24 µM	O=C(NO)C1(S(=O)(=O)N2CCN(c3ncc(-c4cccc(-c5ccccc5)c4)s3)CC2)CCOCC1 [Example 365]
0.0503 µM	0.00244 µM	CC(C)c1ccc(-c2cnc(N3CCN(S(=O)(=O)C4(C(=O)NO)CCOCC4)CC3)s2)cc1 [Example 366]
3.29 µM	0.000625 µM	O=C(NO)C1(S(=O)(=O)N2CCC(c3ccc(CCC(F)(F)F)cn3)CC2)CCOCC1 [Example 367]
0.18 µM	0.000423 µM	O=C(NO)C1(S(=O)(=O)N2CCN(c3ncc(-c4ccc(O)cc4)s3)CC2)CCOCC1 [Example 368]
0.343 µM	0.0227 µM	O=C(NO)C1(S(=O)(=O)N2CCN(c3ncc(-c4ccc(Cl)c(Cl)c4)s3)CC2)CCOCC1 [Example 369]
0.341 µM	0.0091 µM	Cc1cccc(-c2cnc(N3CCN(S(=O)(=O)C4(C(=O)NO)CCOCC4)CC3)s2)c1 [Example 370]
1.59 µM	0.0065 µM	COc1ccc(-c2cnc(N3CCN(S(=O)(=O)C4(C(=O)NO)CCOCC4)CC3)s2)cc1OC [Example 371]
0.462 µM and 0.47 µM	0.000665 µM and 0.00075 µM	O=C(NO)C1(S(=O)(=O)N2CCN(c3ccc(-c4ccccc4)cn3)CC2)CCOCC1 [Example 372]
0.0797 µM	0.00765 µM	O=C(NO)C1(S(=O)(=O)N2CCC(COCc3ccccc3)CC2)CCOCC1 [Example 373]
0.195 µM	0.219 µM	CCC=C1CCN(S(=O)(=O)C2(C(=O)NO)CCOCC2)CC1 [Example 374]
2.86 µM	0.105 µM	O=C(NO)C1(S(=O)(=O)N2CCC(COCC(F)(F)C(F)F)CC2)CCOCC1 [Example 375]

Second part, the compound before the results:

SMILES	Ki (MMP-14)	Ki (MMP-9)
CCc1ccc(C2CCN(S(=O)(=O)C3(C(=O)NO)CCN(CCOC)CC3)CC2)s1 [Example 314]	1.31 µM	0.022 µM
O=C(NO)C1(S(=O)(=O)N2CCC(N3CCN(c4ccc(Cl)cc4)CC3)CC2)CCOCC1 [Example 315]	> 10 µM	4.96 µM
O=C(NO)C1(S(=O)(=O)N2CCN(c3ccc(-c4ccc(F)cc4F)cn3)CC2)CCOCC1 [Example 316]	0.91 µM	0.00239 µM
O=C(NO)C1(S(=O)(=O)N2CCN(c3ccc(-c4ccccc4F)cn3)CC2)CCOCC1 [Example 317]	0.653 µM	0.00218 µM
COc1ccccc1-c1ccc(N2CCN(S(=O)(=O)C3(C(=O)NO)CCOCC3)CC2)nc1 [Example 318]	1.49 µM	1.38 µM
O=C(NO)C1(S(=O)(=O)N2CCN(c3ccc(-c4cccc(OC(F)(F)F)c4)cn3)CC2)CCOCC1 [Example 319]	> 10 µM	0.923 µM
O=C(NO)C1(S(=O)(=O)N2CCN(c3ccc(CCCC(F)(F)F)cc3)CC2)CCOCC1 [Example 320]	3.93 µM	0.00133 µM
O=C(NO)C1(S(=O)(=O)N2CCN(c3cnn(CCCC(F)(F)F)c(=O)c3)CC2)CCOCC1 [Example 321]	> 10 µM	> 10 µM
O=C(NO)C1(S(=O)(=O)N2CCN(c3cnn(-c4ccccc4)c(=O)c3)CC2)CCOCC1 [Example 322]	> 10 µM	> 10 µM
CCCCc1ccc(C2CCN(S(=O)(=O)C3(C(=O)NO)CCOCC3)CC2)nc1 [Example 323]	1.29 µM	–
COC(=O)c1ccc(N2CCN(S(=O)(=O)C3(C(=O)NO)CCOCC3)CC2)cc1 [Example 324]	1.15 µM	0.00239 µM
CCCCOc1ccc(N2CCN(S(=O)(=O)C3(C(=O)NO)CCN(CCOC)CC3)CC2)nc1 [Example 325]	0.912 µM	0.00032 µM
O=C(NO)C1(S(=O)(=O)N2CCN(c3ccc(OCC(F)(F)C(F)F)cc3)CC2)CCOCC1 [Example 326]	2.43 µM	0.00203 µM
O=C(NO)C1(S(=O)(=O)N2CCN(c3ccc(-c4ccc(OC(F)(F)F)cc4)cc3)CC2)CCOCC1 [Example 327]	1.37 µM	0.0356 µM
O=C(NO)C1(S(=O)(=O)N2CCN(c3ccc(-c4ccc(Cl)c(Cl)c4)cc3)CC2)CCOCC1 [Example 328]	2.69 µM	0.0957 µM
O=C(NO)C1(S(=O)(=O)N2CCN(c3cnn(-c4ccccc4)c(=O)c3Cl)CC2)CCOCC1 [Example 329]	> 10 µM	> 10 µM
O=C(NO)C1(S(=O)(=O)N2CCC(c3ccc(OCC(F)(F)C(F)(F)F)cc3)CC2)CCOCC1 [Example 330]	> 10 µM	0.00303 µM
O=C(NO)C1(S(=O)(=O)N2CCN(c3ccc(Br)cn3)CC2)CCOCC1 [Example 331]	0.0135 µM	0.0017 µM
COCCN1CCC(C(=O)NO)(S(=O)(=O)N2CCN(c3ncccn3)CC2)CC1 [Example 332]	> 10 µM	0.26 µM
O=C(NO)C1(S(=O)(=O)N2CCN(c3ccc(OCC4CC4)c(F)c3)CC2)CCOCC1 [Example 333]	2.36 µM	0.00105 µM

SMILES	Ki (MMP-14)	Ki (MMP-9)
CCCCc1cnc(N2CCN(S(=O)(=O)C3(C(=O)NO)CCN(CCOC)CC3)CC2)nc1 [Example 334]	5.77 µM	0.00119 µM
O=C(NO)C1(S(=O)(=O)N2CCN(c3ccc(CCC(F)(F)C(F)(F)F)cc3)CC2)CCN(C2CC2)CC1 [Example 335]	9.29 µM	0.000384 µM
O=C(NO)C1(S(=O)(=O)N2CCN(c3ccc(OCC(F)(F)C(F)F)cc3)CC2)CCOCC1 [Example 336]	2.52 µM	0.00138 µM
O=C(NO)C1(S(=O)(=O)N2CCC(c3ccc(OC(F)(F)C(F)F)cc3)CC2)CCOCC1 [Example 337]	1.61 µM	0.000792 µM
O=C(NO)C1(S(=O)(=O)N2CCC(c3ccc(CCCC(F)(F)F)cn3)CC2)CCOCC1 [Example 338]	1.33 µM	0.000738 µM
O=C(NO)C1(S(=O)(=O)N2CCC(c3ccc(CCC(F)(F)C(F)(F)F)cn3)CC2)CCOCC1 [Example 340]	1.3 µM	0.000222 µM
CCN1CCC(C(=O)NO)(S(=O)(=O)N2CCN(c3ccc(-c4ccccc4)c(F)c3)CC2)CC1 [Example 341]	4.3 µM	0.00377 µM
O=C(NO)C1(S(=O)(=O)N2CCN(c3ccc(OCCCC(F)(F)F)cc3)CC2)CC(O)C1 (stereo not shown) [Example 342]	> 10 µM	0.108 µM
O=C(NO)C1(S(=O)(=O)N2CCN(c3ncc(-c4ccc(Cl)cc4)s3)CC2)CCOCC1 [Example 343]	0.0349 µM	0.000489 µM
Cc1ccc(-c2cnc(N3CCN(S(=O)(=O)C4(C(=O)NO)CCOCC4)CC3)s2)cc1 [Example 344]	0.075 µM	0.000492 µM
O=C(NO)C1(S(=O)(=O)N2CCN(c3ncc(-c4ccc(F)cc4)s3)CC2)CCOCC1 [Example 345]	0.0381 µM	0.000416 µM
O=C(NO)C1(S(=O)(=O)N2CCN(c3ncc(-c4ccc(C(F)(F)F)cc4)s3)CC2)CCOCC1 [Example 346]	0.114 µM	0.00205 µM
CC(C)(C)c1ccc(-c2cnc(N3CCN(S(=O)(=O)C4(C(=O)NO)CCOCC4)CC3)s2)cc1 [Example 347]	0.0846 µM	0.00638 µM
Cc1ccccc1-c1cnc(N2CCN(S(=O)(=O)C3(C(=O)NO)CCOCC3)CC2)s1 [Example 348]	0.65 µM	0.00957 µM
O=C(NO)C1(S(=O)(=O)N2CCC(c3ccc(OC(F)(F)C(F)(F)F)cc3)CC2)CCOCC1 [Example 349]	> 10 µM	0.0292 µM
O=C(NO)C1(S(=O)(=O)N2CCC(c3ccc(OCC(F)(F)C(F)F)cc3)CC2)CCN(C2CC2)CC1 [Example 350]	4.47 µM	0.00121 µM
O=C(NO)C1(S(=O)(=O)N2CCC(c3ccc(CCCC(F)(F)F)cc3)CC2)CCN(C2CC2)CC1 [Example 351]	4.74 µM	0.000431 µM
O=C(O)c1ccc(N2CCN(S(=O)(=O)C3(C(=O)NO)CCOCC3)CC2)cc1 [Example 352]	> 10 µM	6.61 µM
O=C(NO)C1(S(=O)(=O)N2CCC(c3ccc(CCCC(F)(F)F)cc3)CC2)CCOCC1 [Example 353]	2.71 µM	0.000546 µM
CCCCOc1cccc(N2CCN(S(=O)(=O)C3(C(=O)NO)CCOCC3)CC2)c1 [Example 354]	4.14 µM	0.786 µM

Reference: patent publication US20050209278A1, “Piperidinyl- and piperazinyl-sulfonylmethyl hydroxamic acids and their use as protease inhibitors” (priority 2002, published 2005)
